Test results taken from patent US20170334899A1, “AMINO-SUBSTITUTED ISOTHIAZOLES” (Bayer Pharma Aktiengesellschaft, priority 2014, published 2017).

Assays:
CDK2/CycE = target: T1, CDK2/CycE (Homo sapiens, UniProt P24941); experiment: CDK2/CycE kinase assay (TR-FRET); assay type: biochemical; settings: avg, read-out: CDK2 avg (IC50 [mol/l])
T1 construct: GST; purchased ProQinase GmbH (Freiburg, Germany); host or cells: insect cells (Sf9)
Summary of the method: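 GST-tagged human CDK2 and CycE from Sf9 cells, preincubated 15 min with compound, then 25 min at 22° C. with 10 μM ATP and 0.75 μM biotinylated Rb-derived peptide (final). Phospho-substrate read by TR-FRET (anti-pRB pSer807/pSer811, Eu anti-mouse IgG, streptavidin-XL665), 665/620 nm ratio, normalised to no-inhibitor and no-enzyme controls.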

[1] = target: T2, catalytic domain of human Bub1 (amino acids 704-1085) (Homo sapiens, UniProt O43683); experiment: Bub1 kinase assay (TR-FRET); assay type: biochemical; settings: 10 μM ATP, avg, read-out: Bub1 avg (IC50 [mol/l])
T2 construct: catalytic domain of human Bub1 (amino acids 704-1085); His6 (N); made in house; host or cells: insect cells (Hi5)
Summary of the method: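 Readout is the 665/620 nm TR-FRET ratio from anti-phosphoserine antibody, Eu-labelled anti-mouse IgG and streptavidin-XL665, scaled between no-enzyme and uninhibited controls. Reaction: 1 μM biotinylated peptide, 10 μM ATP, 60 min, 22 °C, after 15 min compound preincubation with His6-Bub1 (704-1085, insect-expressed, ~200 ng/ml).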

T2 sequence (O43683 704-1085): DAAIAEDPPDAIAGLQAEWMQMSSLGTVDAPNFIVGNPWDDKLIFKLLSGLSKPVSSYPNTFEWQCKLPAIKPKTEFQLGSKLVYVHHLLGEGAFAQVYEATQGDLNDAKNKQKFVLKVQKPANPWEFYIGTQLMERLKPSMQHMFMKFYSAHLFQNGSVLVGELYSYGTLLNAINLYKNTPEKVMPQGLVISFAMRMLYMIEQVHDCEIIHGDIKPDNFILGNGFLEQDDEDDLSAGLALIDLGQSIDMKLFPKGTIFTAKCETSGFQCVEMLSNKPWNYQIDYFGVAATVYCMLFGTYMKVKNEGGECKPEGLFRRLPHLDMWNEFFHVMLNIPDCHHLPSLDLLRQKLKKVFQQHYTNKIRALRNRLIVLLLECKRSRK

Row | SMILES | IC50 (CDK2/CycE) | IC50 [1]
1 | Cc1nsc(Nc2cncc(C(F)(F)F)n2)c1C(=O)Nc1ccc(OC2CCN(C(C)C)CC2)nc1 [Example 218, N-{6-[(1-isopropylpiperidin-4-yl)oxy]pyridin-3-yl}-3-methyl-5-{[6-(trifluoromethyl)pyrazin-2-yl]amino}-1,2-thiazole-4-carboxamide] | > 20 µM | > 20 µM
2 | Cc1nsc(Nc2cnc3ccccc3n2)c1C(=O)Nc1ccc(OC2CCN(C(=O)OC(C)(C)C)CC2)nc1 [Example 18, tert-Butyl 4-{[5-({[3-methyl-5-(quinoxalin-2-ylamino)-1,2-thiazol-4-yl]carbonyl}-amino)pyridin-2-yl]oxy}piperidine-1-carboxylate] | ≥ 20 µM | ≥ 20 µM
3 | Cc1nsc(Nc2cncc(C(F)(F)F)n2)c1C(=O)Nc1ccc(OCC2CCN(C(=O)OC(C)(C)C)CC2)nc1 [Example 226, tert-butyl 4-{[(5-{[(3-methyl-5-{[6-(trifluoromethyl)pyrazin-2-yl]amino}-1,2-thiazol-4-yl)carbonyl]amino}pyridin-2-yl)oxy]methyl}piperidine-1-carboxylate] | > 20 µM | > 20 µM
4 | Cc1nsc(Nc2cc(C#N)ccn2)c1C(=O)Nc1cccc(NC(=O)C(C)(C)C)c1 [Example 183, 5-[(4-cyanopyridin-2-yl)amino]-N-{3-[(2,2-dimethylpropanoyl)amino]phenyl}-3-methyl-1,2-thiazole-4-carboxamide] | > 20 µM | > 20 µM
5 | Cc1cc(C)n(-c2ccccc2NC(=O)c2c(C)nsc2Nc2cnc3ccccc3n2)n1 [Example 243, N-[2-(3,5-dimethyl-1H-pyrazol-1-yl)phenyl]-3-methyl-5-(quinoxalin-2-ylamino)-1,2-thiazole-4-carboxamide] | > 20 µM | > 20 µM
6 | CC(=O)Nc1cc(NC(=O)c2c(C)nsc2Nc2cnccn2)ccc1F [Example 205, N-(3-acetamido-4-fluorophenyl)-3-methyl-5-(pyrazin-2-ylamino)-1,2-thiazole-4-carboxamide] | > 20 µM | > 20 µM

Results, then the compound that gave them:

Row | IC50 (CDK2/CycE) | IC50 [1] | SMILES
7 | > 20 µM | > 20 µM | Cc1nsc(Nc2cnc3ccccc3n2)c1C(=O)Nc1ccc(OCCC(=O)OC(C)(C)C)nc1 [Example 198, tert-butyl 3-{[5-({[3-methyl-5-(quinoxalin-2-ylamino)-1,2-thiazol-4-yl]carbonyl}amino)pyridin-2-yl]oxy}propanoate]
8 | > 20 µM | > 20 µM | Cc1nsc(Nc2cncc(C(F)(F)F)n2)c1C(=O)Nc1ccc(OCCCNC(=O)OC(C)(C)C)nc1 [Example 190, tert-butyl {3-[(5-{[(3-methyl-5-{[6-(trifluoromethyl)pyrazin-2-yl]amino}-1,2-thiazoL-4-yl)carbonyl]amino}pyridin-2-yl)oxy]propyl}carbamate]
9 | > 20 µM | > 20 µM | CNS(=O)(=O)c1ccc(NC(=O)c2c(C)nsc2Nc2cnc(C(F)(F)F)cn2)cc1 [Example 212, 3-methyl-N-[4-(methylsulfamoyl)phenyl]-5-{[5-(trifluoromethyl)pyrazin-2-yl]amino}-1,2-thiazole-4-carboxamide]
10 | > 20 µM | > 20 µM | Cc1nsc(Nc2cncc(C(F)(F)F)n2)c1C(=O)Nc1ccc(OC2CCN(CCF)CC2)c(F)c1 [Example 223, N-(3-fluoro-4-{[1-(2-fluoroethyl)piperidin-4-yl]oxy}phenyl)-3-methyl-5-{[6-(trifluoromethyl)pyrazin-2-yl]amino}-1,2-thiazole-4-carboxamide]
11 | 15 µM | 4.3 µM | CNS(=O)(=O)c1ccc(NC(=O)c2c(C)nsc2Nc2cncc(C(F)(F)F)n2)cc1 [Example 211, 3-methyl-N-[4-(methylsulfamoyl)phenyl]-5-{[6-(trifluoromethyl)pyrazin-2-yl]amino}-1,2-thiazole-4-carboxamide]
